# Results as given in a melting point compilation (Tetko et al.; mined from patent text by program, amines drawn as free bases though some values may be those of a salt).
# Residues, ends and D or L forms follow the SMILES beside them. *: point of attachment. Boc = CC(C)(C)OC(=O)*
row,SMILES,melting point [°C]
1,COc1ccc(SC2(CCCC#Cc3ccc(Cl)cc3)SC(=O)NC2=O)cc1 (stereo not drawn),106 to 109
2,CCN(CC)C(=O)n1ccc(S(=O)(=O)c2ccc(Br)c(C)c2)n1,75 to 77
3,CC(C)(C)c1ccc(S(=O)(=O)n2c(CCCC(=O)O)cc3nc(Cl)ccc32)cc1,168
4,COC1CCC(O)C(CNC(C)=O)O1 (stereo not drawn),117 to 118
5,CC(C)(C)C(=O)OCOc1ccc(C=O)cc1OC(=O)C(C)(C)C,58 to 60
6,CCc1nc2cc(CO)c(Cl)cc2n1-c1ccc(CCOC(=O)NS(=O)(=O)c2ccc(C)cc2)cc1,173
7,CC(C)S(=O)(=O)C1C(=O)N(Cc2ccccc2)C(=O)c2ccc(Cl)cc21 (stereo not drawn),150 to 152
8,O=c1[nH]c2c(n3ccnc13)Cc1ccccc1-2,350
9,COC(=O)CCCCCC(O)c1ccc(-n2ccnc2)cc1 (stereo not drawn),77 to 78
10,COCc1c(C(=O)OC(C)(C)C)ncc2[nH]c3ccc(Oc4ccc(Br)cn4)cc3c12,173 to 175
11,CCOC(=O)c1c(C)cc2cnc(Cc3ccccc3)nc2c1C,77 to 79
12,O=C(O)c1ccn(-c2ccc(F)cc2)c1,204 to 205
13,COc1c(C)c2c(c(OS(=O)(=O)c3ccc(C)cc3)c1CC=C(C)C=O)C(=O)OC2,168 to 173
14,CC(=O)NC[C@H]1CN(c2ccc(N3CCC(n4cc(C(C)=O)nn4)CC3)c(F)c2)C(=O)O1,220 to 222
15,Cc1c(N2CC[C@H]([C@@H](C)NC(=O)OC(C)(C)C)C2)c(F)cc2c(=O)n(N)c(=O)n(C3CC3)c12,84 to 86
16,COc1cccc(NC(=O)NC2N=C(c3ccccc3)c3ccc(C)cc3N(C)C2=O)c1 (stereo not drawn),184 to 188
17,CC1(C)C(=O)Nc2cc(C=O)ccc2N(CC2CC2)C1=O,124 to 125
18,O=C1COc2cc(Sc3ccc(O)cc3)ccc2N1,156 to 157
19,COC1=CC(=O)C(OC)=C(CCCOCCC2=C(OC)C(=O)C=C(OC)C2=O)C1=O,129 to 130
20,CN(C)C(=S)Oc1ccc(C(F)(F)F)cc1C(=O)c1ccc(C#N)cc1,142
21,CC1(CSc2ccc(Cl)cc2)COC2(CCCCCCCCCCC2)OO1 (stereo not drawn),93 to 94
22,CCOC(=O)c1nc2scc(C(=O)O)c2c(=O)[nH]1,258
23,CC(C)(C)OC(=O)NCC(=O)NC(Cc1ccc(O)cc1)C(=O)NC(CCCCN)C(=O)O (stereo not drawn) (Boc-Gly-Tyr-Lys-OH; configuration not given here),> 200
24,NC(=O)c1nc(-c2cccc(O)c2)nc2c1[nH]c(=O)n2-c1ccccc1C1CCCCC1,> 270
25,Cc1cc(C)c(COc2cccc3c2C(=O)c2c(Cl)ccc4c2c-3nn4CCNCCO)c(C)c1,147 to 158

row,SMILES,melting point [°C]
1,COc1cc2c(=O)n(CCN(C)C)c3c(cnc4cccc(N)c43)c2cc1OC,239 to 241
2,Cc1cc(-c2ccc(Cl)cc2)nc2c(-c3nc(-c4cccc(S(N)(=O)=O)c4)no3)cnn12,275
3,CC1CC2C3=C(C(O)CC2(C)C1C(=O)CO)C1(C)C=CC(=O)C=C1C(F)C3 (stereo not drawn),173
4,O=C(O)CCCNc1ccnn1-c1c(Cl)cc(C(F)(F)F)cc1Cl,160 to 162
5,CC(C)c1cc(Oc2ccc(Cl)cc2C(=O)O)cc(C(C)C)c1,129 to 130
6,Nc1ccc(N2CCN(CCCC3CCCC3)C2=O)cc1,97 to 99
7,NS(=O)(=O)c1ccc(CCI)cc1,227
8,CCOC(=O)N(O)C(C)c1cc(C(C)(C)C)c(O)c(C(C)(C)C)c1 (stereo not drawn),130 to 132
9,O=S1(=O)N=CN(C2CCCCC2)c2cc(Cl)c(Cl)cc21,219 to 222
10,Cn1cc(S(C)=O)c(=O)c2ccc(F)cc21 (stereo not drawn),226 to 228
11,COc1ccccc1Nc1cc(C(=O)Nc2ccccc2)ccc1OC,155 to 156
12,CC(C)Oc1ccc(C(=O)n2nc(Nc3ccc(O)cc3)nc2N)cc1,229 to 234
13,COc1ccc(C2CN(O)C3(c4ccccc4)CCCCC23)cc1OC (stereo not drawn),166 to 168
14,COc1ccc(C(=O)O)c2c1oc1ccc(Cl)cc12,264 to 276
15,CNc1cccc(-c2ccc(C(=O)O)c(=O)[nH]2)c1,283 to 284
16,NC(=O)c1cnn2c(-c3cccc(F)c3)ccnc12,247 to 249
17,CC(C)C(C)(C#N)NC(=O)c1ccccc1C(=O)O (stereo not drawn),154 to 155
18,CCC(=O)NC1=NN(c2nc3ccccc3s2)C(c2ccc(C)cc2)C1 (stereo not drawn),208 to 209
19,N#Cc1cc(F)c(-n2nc(C(F)(F)F)n(N)c2=O)cc1F,141
20,COc1ccc(C2CCN(c3c(C)c(C)c4c(c3C)C(O)(c3ccccc3)C(C)(C)O4)CC2)cc1OC (stereo not drawn),143 to 145
21,CC(=O)C(=Cc1ccc(S(C)(=O)=O)c(Cl)c1)C(C)=O,140 to 142
22,CCOCCc1ccc(OCCNc2ncnc(C)c2Cl)c(C)c1,57 to 58
23,COC(=O)c1ncsc1S,100
24,CCCC(=O)c1ccc(C(CCC)CC(=O)Nc2cc(C(N)=O)ccc2C(C)(C)C)c(OC)c1 (stereo not drawn),193 to 194
25,COc1ccc2ncccc2c1N,152 to 154

row,SMILES,melting point [°C]
1,CC(=O)OC1=CC=C2CC3N4CCC25C1OC1C(=O)CCC3(OC4)C15 (stereo not drawn),179 to 182
2,NC(=O)c1cc(-c2ccccc2)n[nH]c1=O,> 300
3,COc1ccc(CCCCCCN)cc1,63 to 65
4,CCOC(=O)c1cccc2c1CCCC2C(N)=O (stereo not drawn),160 to 162
5,Cn1c(CON)ncc(O)c1=O,106
6,CCOC(=O)C1C=Nc2c(ccc3cc(C(=O)N(C)Cc4ccc(F)cc4)cnc23)C1=O (stereo not drawn),206 to 207
7,C[C@@H](n1cnc2cc(Cl)ccc2c1=O)[C@](O)(Cn1cncn1)c1ccc(Cl)cc1Cl,144 to 146
8,Nc1c(Cl)cc(-c2nn(C3CCN(Cc4ccc(C(F)(F)F)cc4)CC3)c(=O)o2)c2c1OCCO2,198
9,CN1CC(=O)N(c2ccc3c(c2)CCC3)C1=S,158 to 160
10,COc1ccc(S(=O)(=O)N(Cc2cccnc2)c2c(C(=O)NO)cnc3c2c(C)nn3C)cc1,202 to 204
11,CC(C)(C)OC(=O)N1CCCN(c2cc[nH]c(=S)c2C#N)CC1,203 to 205
12,CNc1nc(-c2ccccc2)c(-c2nc3ccccc3c(=O)n2-c2ccccc2OC)s1,241 to 243
13,CON=Cc1cc(=O)c(OCc2ccccc2)c(C(=O)c2ccc(Cc3ccc(F)cc3)o2)o1,116 to 117
14,CCC(C)n1ncn(-c2ccc(N3CCN(c4ccc(OC)cc4)CC3)c(Br)c2)c1=O (stereo not drawn),145
15,CCCCCCCCCCCCCCCCCCOc1cc(OCCCOc2ccccc2)cc(C(=O)OCc2ccccc2)c1,46 to 47
16,COC(=O)c1ccc2nc(C)[nH]c2c1C(=O)OC,97 to 103
17,CCCCc1nc(Cl)c(C(=O)O)n1Cc1ccc(-c2ccccc2-c2c(O)c(=O)c2=O)cc1,168
18,COc1ccc(/C=C/C(=O)Nc2ccccc2)cc1OC,131 to 133
19,C[C@@H](n1cnc2cc(C#N)ccc2c1=O)[C@](O)(Cn1cncn1)c1ccc(F)cc1F,168 to 169
20,"CS(=O)(=O)NCC(=O)N1CCC(C2c3ncc(Br)cc3CCc3cc(Cl)cc(Cl)c32)CC1 (single isomer, unassigned; (+))",120 to 140
21,O=C(CCl)NC(C(=O)O)c1ccc2c(c1)CCS2 (stereo not drawn),173 to 175
22,CC(C)n1c(=O)[nH]oc1=O,150
23,COc1cn(-c2ccc(N(N)C(=O)OC(C)(C)C)cc2F)nc(-c2ccnn2-c2ccccc2)c1=O,163 to 165
24,CC(C)(C)c1ccc(OCC(O)CN2CCC3(CC2)CSC2=C(O3)c3cc(Cl)ccc3C(=O)C2=O)cc1 (stereo not drawn),94 to 97
25,CCCN(C(=O)CC)c1c(C#N)cnn1-c1ccc(OC(F)(F)F)cc1Cl,83

row,SMILES,melting point [°C]
1,Cc1c(C2=CCC(c3ccccc3)(N(C)C)CC2)[nH]c2ccc(F)cc12 (stereo not drawn),171 to 175
2,O=C(O)CSCc1cccc(NC(=O)c2cc(-c3ccccc3)oc2C(F)(F)F)c1,178 to 182
3,O=C(O)c1cccc2c1S(=O)(=O)c1ccccc1C2=O,237
4,COCC(=O)C(=NNc1ccccc1F)C(=O)OC,121 to 126
5,O=C(Nc1ccc(Oc2ccc(C(F)(F)F)cc2)cc1)Nc1nonc1-c1ccc(Cl)cc1,208
6,CC1C=C2CCCCCCCCCC=C2C1 (stereo not drawn),98 to 103
7,Nc1ccccc1C(=O)Nc1cccc2cc(Br)cnc12,147 to 150
8,CC[C@H]1CC[C@H](CCc2ccc(-c3ccc(C#N)cc3)c(F)c2)CC1,65.4
9,Cc1[nH]c(=O)[nH]c1C(=O)c1ccco1,214 to 216
10,CCOC(=O)C1=C(N(C)C)N=C(C)C(C(=O)OCC)C1c1ccccc1C(F)(F)F (stereo not drawn),87
11,CN(CCO)C(=O)Nc1ccc2c(c1Cl)C(c1ccccc1F)=NCC(=O)N2C,218 to 220
12,CCOC(=O)CC(=O)c1cc(F)c(F)c(Br)c1Cl,47 to 51
13,CC1CN(c2cccc(C(F)(F)F)c2)N=C1NC(=O)C(F)(F)F (stereo not drawn),121 to 122
14,CN1C(=O)C2(COc3cc4c(cc32)OCCO4)c2c(NC(=O)c3ccccc3C(F)(F)F)cccc21 (stereo not drawn),241 to 243
15,N=C(N)NCCCOc1ccc2c(c1)N(Cc1ccccc1)C(=O)C(CC(=O)O)C2 (stereo not drawn),172 to 173
16,COc1cc(C=O)cc(OC)c1O[Si](C)(C)C(C)(C)C,68
17,Cc1nccn1-c1ccc(Sc2cccc(C3(C(N)=O)CCOCC3)c2)cc1,184 to 185
18,Cc1nc(C)c(Cl)c(NCc2cc(OCC(F)(F)F)c(OCc3ccccc3)c(Br)n2)n1,97 to 98
19,CC(C)C[C@H](NC(=O)N1CCCCCC1)C(=O)O,88 to 89
20,O=C(Nc1cccc(-c2cccc(-n3c(=O)c(Cc4cccnc4)nc4cccnc43)c2)c1)C(F)(F)F,138 to 144
21,COc1ccc(C(C(Br)c2ccc(F)cc2)C(F)(F)F)cc1 (stereo not drawn),73 to 94
22,CN(C)C1CC=C(c2c[nH]c3ccc(N)cc23)CC1 (stereo not drawn),63 to 65
23,O=C(c1ccc2ncccc2c1)c1ccc2nc(Cl)nc(-c3cccc(Cl)c3)c2c1,170
